# pKi: −log10 of the molar value. “And” between values parts separate entries of the source, which are not always exact repeats. Identical values can stand only once.
# Columns and labels:
# [1] = Dynamic brain PET-CT with [^18F]OXD-2314 in rats; type: in vivo
# Description: Eight rats were used in preclinical PET scans with [^18F]OXD-2314: two for dynamic brain imaging, and six for whole-body biodistribution of radioactivity and dose estimation. Another five rats were used for radiometabolite analysis in brain homogenates and blood plasma. Dynamic PET-CT imaging in healthy wild-type (wt) rats were performed following intravenous administration of [^18F]OXD-2314 (17.9 and 23.8 MBq, n = 2, one female and one male). Radioactivity reached an initial peak of 2.3 standardized uptake value (SUV) within two minutes in whole brain, followed by a steady washout of radioactivity in the brain to below 0.3 SUV at the end of the 120 min acquisition time (Fig. 4). Distribution of radioactivity was homogenous among brain regions, but with the female rat having slower clearance of radioactivity from the brain and thus higher overall brain radioactivity than the male rat.
# A total of 8 healthy adult rats (Sprague-Dawley, 384 ± 56 g; 4/4 M/F) underwent PET imaging following bolus injection of [^18F]OXD-2314 (20.5 ± 4.1 MBq), with two animals (M/F) scanned for 120 min with the head in the centre of PET field-of-view (FOV) whereas six animals (3/3 M/F) scanned for 180 min at three bed positions (head-to-bottom) with 15 frames (2×15 s, 2×30 s, 2×60 s, 1×120 s, 1×180 s, 2×240 s, 2×300 s, and 3×600 s) to cover the whole body. PET images were acquired using a nanoScan™ PET/CT scanner (Mediso, Budapest, Hungary) with rats anesthetized under isoflurane in O2 (1.5–2%, 1 L/min) throughout the imaging session and monitored closely for body temperature and respiration rate. […] Normalized cumulated activities of each organ were calculated using trapezoidal integration of the area under the TACs plus extrapolation of the TAC to infinity with natural decay of the radiotracer. […] SUV were calculated by normalizing regional radioactivity for injected radioactivity and body weight.
# [2] = target: T1, 4R-tau aggregates in PSP tissue (Homo sapiens, UniProt P10636); experiment: Competition binding vs [^3H]OXD-2115 in PSP tissue homogenates; details: vs [^3H]OXD-2115, PSP tissue homogenates, n = 1
# T1 construct: tissue Neurodegenerative Disease Brain Bank at UCSF
# T1 sequence (P10636 1-441 isoform P10636-8): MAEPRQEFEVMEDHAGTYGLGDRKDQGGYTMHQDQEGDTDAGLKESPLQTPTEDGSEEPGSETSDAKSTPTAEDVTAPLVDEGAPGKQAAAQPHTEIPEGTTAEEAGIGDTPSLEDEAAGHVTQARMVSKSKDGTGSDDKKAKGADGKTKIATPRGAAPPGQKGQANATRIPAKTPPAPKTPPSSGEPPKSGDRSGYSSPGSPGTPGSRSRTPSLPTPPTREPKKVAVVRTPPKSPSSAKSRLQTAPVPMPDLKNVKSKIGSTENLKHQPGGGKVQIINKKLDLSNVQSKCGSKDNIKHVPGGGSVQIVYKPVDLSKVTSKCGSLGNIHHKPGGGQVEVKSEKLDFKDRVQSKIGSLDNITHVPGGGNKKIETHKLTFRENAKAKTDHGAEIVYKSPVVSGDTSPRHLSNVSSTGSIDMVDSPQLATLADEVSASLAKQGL
# Description: Fresh frozen, autopsy-confirmed human PD anterior cingulate cortex brain tissue blocks (1 cm^3) were obtained from Dr. Thomas Beach at Banner/Sun Health AZ with funding from the Michael J. Fox Foundation and contained frequent α-synuclein aggregates and no other detectable aggregated amyloid species. The frozen tissue blocks were prepared for the binding assays as previously described[47],[48], except that equal quantities of the homogenates of three AD brains (AD1-AD3, Table S1) were pooled, as were homogenates from three PSP brains (PSP1-PSP3), three CBD brains (CBD1-CBD3), three Pick’s brains (PiD1-PiD3), and 4 PD brains (PD1-PD4) in order to help minimize the inter-subject variability within the different neuropathological groups. Individual subcortical brain tissues from a PSP subject (PSP4) and a CBD subject (CBD4), as well as with the middle frontal cortex of a control subject, were prepared for the binding assays as previously described[47],[48].
# The equilibrium inhibition constant (Ki) values of the unlabeled compounds were determined versus tritium-labeled radioligands using published methods.
# MAO-A = target: T2, MAO-A (Homo sapiens, UniProt P21397); experiment: In vitro pharmacology screen (Eurofins): MAO-A; type: binding; details: read-out: interaction with MAO-A (% inhibition)
# T2 construct: purchased Eurofins, France (contract screening)
# T2 sequence (P21397 1-527): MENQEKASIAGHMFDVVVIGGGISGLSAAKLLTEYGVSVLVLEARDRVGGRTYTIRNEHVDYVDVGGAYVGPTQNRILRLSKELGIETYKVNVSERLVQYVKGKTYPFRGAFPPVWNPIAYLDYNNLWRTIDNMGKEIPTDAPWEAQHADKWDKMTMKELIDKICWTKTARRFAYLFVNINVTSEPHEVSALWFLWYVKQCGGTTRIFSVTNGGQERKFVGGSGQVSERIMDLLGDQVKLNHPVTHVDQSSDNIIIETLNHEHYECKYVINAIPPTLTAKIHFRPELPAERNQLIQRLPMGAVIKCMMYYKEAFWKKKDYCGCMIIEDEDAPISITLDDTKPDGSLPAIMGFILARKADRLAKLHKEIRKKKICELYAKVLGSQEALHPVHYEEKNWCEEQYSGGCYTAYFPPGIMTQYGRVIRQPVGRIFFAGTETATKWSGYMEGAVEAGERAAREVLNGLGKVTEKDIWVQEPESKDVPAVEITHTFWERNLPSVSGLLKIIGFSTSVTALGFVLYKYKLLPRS
# Description: OXD-2314 binding to CNS receptors was calculated as a percentage of inhibition of a receptor-specific radioligand. Enzyme inhibition was calculated as the percent inhibition of baseline enzyme activity where inhibition above 50% was considered significant. […] Norepinephrine transports are expressed in low concentration throughout the brain and its relative concentration are not affected by aging or neurodegeneration. 5-lipoxygenase may be overexpressed in aging brain and play some role in neurodegeneration, which could be necessary to further investigate in vivo[42]. Off-target binding to monoamine oxidase A and B (MAO-A and MAO-B) has been seen with some tau PET radiotracers[43],[44].
Compound,ratio initial maximum to late minimum brain radioactivity ([1]; rats),"whole brain radioactivity at end of acquisition ([1]; rats, end of the 120 min acquisition)","initial peak whole brain uptake (SUV) ([1]; wild-type rats, i.v., within two minutes, n = 2)",pKi [2],inhibition at 10 µM (MAO-A)
CO[C@H]1CCCN(c2ccc(-c3cc4cc(O)ccc4[nH]3)c([18F])n2)C1 [[^18F]OXD-2314],~ 8,below 0.3 SUV,2.3 SUV and > 2 SUV,,
"COC1CCCN(c2ccc(-c3cc4cc(O)ccc4[nH]3)c(F)n2)C1 (centres unmarked) [OXD-2314, 2-(2-fluoro-6-(3-methoxypiperidin-1-yl)pyridin-3-yl)-1H-indol-5-ol]",,,,8.32,-1.7%
